Values after ≈ are worked out from the molar mass of the structure shown. Where two headings read alike, the source gives them in different places.
Legend:
[1] = Equilibrium saturated solubility in HFA-152a without cosolvent; assay type: physicochemical; settings: organic solvent or mixture, thermodynamic from solid, no cosolvent
Method: In this Example, the equilibrium saturated solubility of Δ-9-THC and CBD individually in HFA-152a. was measured.
[…]. Each solution was covered with aluminum foil to prevent UV light from reaching the drug. A first set of solutions was then shaken at room temperature for 4 days. A second set of solutions was stored at 5° C. and manually shaken several times per day. After 4 days, each solution was filtered to remove undissolved CBD and/or Δ-9-THC, and the concentration of each cannabinoid was measured. Formulations were assessed for solubility at room temperature and at 5° C.

[2] = Equilibrium saturated solubility in HFA-134a (comparative); assay type: physicochemical; settings: room temperature
Method: (§1) In this Example, the equilibrium saturated solubility of CBD or Δ-9-THC individually in HFA-227 and HFA-134a was measured.
(§2) […]. Each solution was shaken at room temperature for 4 days, after which each solution was filtered to remove undissolved CBD and/or Δ-9-THC, and the concentration of each cannabinoid was measured. The equilibrium saturated solubility of each cannabinoid in each propellant was measured at room temperature.

[3] = Equilibrium saturated solubility in HFA-227 (comparative); assay type: physicochemical; settings: organic solvent or mixture, thermodynamic from solid, room temperature
Method: as §1, §2

[4] = for solubility at 14 days: organic solvent or mixture; for visual solubility: HFA-152a, after 14 days, ambient conditions or 5° C.

Compound | solubility at 4 days ([1]; 5° C.) [µg/mL] | solubility at 4 days ([1]; room temperature) [µg/mL] | solubility at 4 days ([2]; organic solvent or mixture, thermodynamic from solid) [µg/mL] | solubility at 4 days [3] [µg/mL] | solubility at 14 days ([4]; HFA-152a with 4%, […]) [µg/mL] | visual solubility ([4]; 4% ethanol by weight) | visual solubility ([4]; 5% ethanol by weight) | visual solubility ([4]; 6% ethanol by weight) | equilibrium saturated solubility in HFA-134a ([2]; 4 days) [µg/mL] | solubility at 14 days ([4]; HFA-152a with 1-3% ethanol by weight) [µg/mL] | visual solubility ([4]; 1% ethanol by weight) | visual solubility ([4]; 2% ethanol by weight) | visual solubility ([4]; 3% ethanol by weight)
CCCCCc1cc(O)c2c(c1)OC(C)(C)[C@@H]1CCC(C)=C[C@@H]21 [Δ-9-THC, (6aR,10aR)-6,6,9-trimethyl-3-pentyl-6a,7,8,10a-tetrahydro-6H-benzo[c]chromen-1-ol] | ≥ 21800 | ≥ 24700 | 2300 (≈ 7.31 mM) | 1500 (≈ 4.77 mM) | ≥ 15900 | Soluble | Soluble | Soluble |  |  |  |  | 
C=C(C)[C@@H]1CCC(C)=C[C@H]1c1c(O)cc(CCCCC)cc1O [CBD, 2-[(1R,6R)-6-Isopropenyl-3-methylcyclohex-2-en-1-yl]-5-pentylbenzene-1,3-diol] | ≥ 16400 | ≥ 15700 |  | 1800 (≈ 5.72 mM) |  |  |  |  | 2500 | ≥ 15900 | Soluble | soluble | soluble

Source: patent US20260241119A1, “METERED DOSE INHALERS AND SOLUTIONS INCLUDING CANNABINOIDS IN HFA-152A” (Kindeva Drug Delivery L.P., priority 2023, published 2026)
